In the supplement of paper PMC4862054:

Columns and labels:
Experiment in all cases: normalised response (% of control), CellTox Green; higher = less cell death (100 = DMSO, 0 = benzethonium chloride kill control)
Conditions in all cases: incubation time: 72 h
DU-4475 = test system: DU-4475
Outline: (§1)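 Values are normalised signals, each belonging to one concentration of the series. Breast cancer cells (20 µl suspension) were seeded into 384-well plates with compound at 5 concentrations in 10-fold steps over a compound-specific 10,000-fold range and incubated 72 h. Readouts were CellTox Green fluorescence (485/520 nm), then CellTiter-Glo luminescence after 10 min at room temperature, with each plate set to 0.1 % DMSO as 100 and a positive kill control as 0.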

MFM-223 = test system: MFM-223
Outline: as §1

HDQ-P1 = test system: HDQ-P1
Outline: as §1

CAL-120 = test system: CAL-120
Outline: as §1

BT-474 = test system: BT-474
Outline: as §1

BT-549 = test system: BT-549
Outline: as §1

MDA-MB-436 = test system: MDA-MB-436
Outline: as §1

HCC1599 = test system: HCC1599
Outline: as §1

MCF-10A = test system: MCF-10A
Outline: as §1

CAL-148 = test system: CAL-148
Outline: as §1

CAL-51 = test system: CAL-51
Outline: as §1

Hs578T = test system: Hs578T
Outline: as §1

MDA-MB-468 = test system: MDA-MB-468
Outline: as §1

Row | SMILES | normalised response (DU-4475) | normalised response (MFM-223) | normalised response (HDQ-P1) | normalised response (CAL-120) | normalised response (BT-474) | normalised response (BT-549) | normalised response (MDA-MB-436) | normalised response (HCC1599) | normalised response (MCF-10A) | normalised response (CAL-148) | normalised response (CAL-51) | normalised response (Hs578T) | normalised response (MDA-MB-468)
1 | Cc1c(CN2CCN(C(=O)[C@H](C)O)CC2)sc2c(N3CCOCC3)nc(-c3cnc(N)nc3)nc12 [GDC-0980] (10000 nM) | 85.5% | -39.7% | 41.6% | 104% | 53.5% | 95.2% | 98.5% | 96.9% | 88.3% | 49.1% | 18% | 98.8% | 119%
2 | Nc1cccc2c1CN(C1CCC(=O)NC1=O)C2=O (stereo not given) [Lenalidomide] (1000 nM) | 103% | 99.6% | 104% | 96.9% | 99.8% | 125% | 88.4% | 105% | 108% | – | 104% | 94.5% | 122%
3 | Nc1cccc2c1CN(C1CCC(=O)NC1=O)C2=O (stereo not given) [Lenalidomide] (10000 nM) | 100% | 80.3% | 98.5% | 97.7% | 102% | 117% | 95.5% | 103% | 91.8% | – | 102% | 127% | 138%
4 | C[C@]12O[C@H](C[C@]1(O)CO)n1c3ccccc3c3c4c(c5c6ccccc6n2c5c31)CNC4=O [Lestaurtinib] (100 nM) | 91.5% | 86.4% | 105% | 96.2% | 94% | 99.7% | 66.7% | 74.8% | 107% | 95.8% | 56.4% | 96.2% | 69.6%
5 | C[C@]12O[C@H](C[C@]1(O)CO)n1c3ccccc3c3c4c(c5c6ccccc6n2c5c31)CNC4=O [Lestaurtinib] (1000 nM) | 71.7% | 89.8% | 76.4% | 65.5% | 77.2% | 50% | 51.6% | 57.5% | 66% | 67% | 111% | 25.3% | 107%
6 | O=C1c2c(O)ccc(O)c2C(=O)c2c(NCCNCCO)ccc(NCCNCCO)c21 [Mitoxantrone] (100 nM) | 99.1% | 101% | 101% | -30.1% | 101% | 117% | 87.8% | 91% | 113% | 82.3% | 92.8% | 106% | 158%
7 | O=C1c2c(O)ccc(O)c2C(=O)c2c(NCCNCCO)ccc(NCCNCCO)c21 [Mitoxantrone] (1000 nM) | 94.2% | 88% | 98.8% | 107% | 95.7% | 108% | 78% | 112% | 112% | 52.5% | 60% | 112% | 217%
8 | Nc1ccccc1NC(=O)c1ccc(CNc2nccc(-c3cccnc3)n2)cc1 [Mocetinostat] (1000 nM) | 93% | 92.4% | – | 95.2% | 96% | 103% | 66.7% | 83.2% | 106% | 98.8% | 67% | 59.8% | 62.9%
9 | O=C(CCBr)N1CCN(C(=O)CCBr)CC1 [Pipobroman] (1000 nM) | 101% | 94% | 100% | 98.9% | 100% | 98.2% | 102% | 93.6% | 103% | – | 106% | 91.2% | 84.6%
10 | O=C(CCBr)N1CCN(C(=O)CCBr)CC1 [Pipobroman] (10000 nM) | 96.9% | – | 104% | 91.5% | 100% | 98.9% | 101% | 97.4% | 88.8% | 96.9% | 101% | 128% | 134%
11 | C[C@]12C=CC(=O)C=C1CC[C@@H]1[C@@H]2[C@@H](O)C[C@@]2(C)[C@H]1CC[C@]2(O)C(=O)CO [Prednisolone] (1000 nM) | 102% | 95.8% | – | 98.7% | 99.6% | 116% | 54.9% | 100% | 101% | 104% | 113% | 104% | 156%
12 | CNC(=O)c1cc(Oc2ccc(NC(=O)Nc3ccc(Cl)c(C(F)(F)F)c3)cc2)ccn1 [Sorafenib] (100 nM) | 99.9% | 101% | 67.2% | 99.5% | 96.8% | 114% | 105% | 93.7% | 99.8% | 73% | 87% | – | 118%
13 | CC[C@@]1(O)C(=O)OCc2c1cc1n(c2=O)Cc2cc3c(CN(C)C)c(O)ccc3nc2-1 [Topotecan] (1000 nM) | 83.2% | 90.7% | – | 85% | 96.6% | 90.6% | 71% | 81.3% | 92.2% | 12% | 18.9% | – | -478%
